Experimental data taken from ChEMBL document CHEMBL5346924, “Optically activated MEK1/2 inhibitors (Opti-MEKi) as potential antimelanoma agents” (Eur J Med Chem, 2023).
Calls of active or inactive are those of the source. The calls are words filed in the database; no cut-off is given here.

What was measured:
[1] = tested on: A-375; assay: Antiproliferative activity against human A-375 cells harboring BRAF V600E mutant assessed as cell growth inhibition preincubated with compound for 1 hrs followed by UV irradiation for 1 min and measured 72 hrs post compound treatment by CellTiter-Glo luminescent assay; format: functional; details: A-375, light or radiation study
[2] = tested on: A-375; assay: Antiproliferative activity against human A-375 cells harboring BRAF V600E mutant assessed as cell growth inhibition incubated for 72 hrs in the absence of UV irradiation by CellTiter-Glo luminescent assay; format: functional; details: A-375, light or radiation study
[3] = tested on: A-375; assay: Antiproliferative activity against human A-375 cells harboring BRAF V600E mutant assessed as cell growth inhibition preincubated with compound for 1 hrs followed by UV irradiation for 5 mins and measured 72 hrs post compound treatment by CellTiter-Glo luminescent assay; format: functional; details: A-375, light or radiation study
[4] = Stability of the compound in PBS-DMSO solution assessed as drug degradation measured after 12 hrs in the absence of light irradiation; format: physicochemical; details: read-out: Drug degradation
[5] = tested on: A-375; assay: Antiproliferative activity against human A-375 cells harboring BRAF V600E mutant assessed as cell growth inhibition preincubated with compound for 1 hrs followed by UV irradiation for 3 mins and measured 72 hrs post compound treatment by CellTiter-Glo luminescent assay; format: functional; details: A-375, light or radiation study
[6] = Photoactivation of the compound assessed as photocleavage by measuring decay half-life in the presence of 365 nm UV irradiation by HPLC based LC-MS analysis
[7] = Cytotoxicity against HEK293T cells assessed as cell growth inhibition preincubated with compound for 1 hrs followed by 365 nm light irradiation for 5 mins and measured 72 hrs post compound treatment by CellTiter-Glo luminescent assay; format: toxicity, cell-based, HEK-293T; details: human
[8] = tested on: A-375; assay: Antiproliferative activity against human A-375 cells harboring BRAF V600E mutant assessed as cell growth inhibition preincubated with compound for 1 hrs followed by 365 nm light irradiation for 5 mins and measured 72 hrs post compound treatment by CellTiter-Glo luminescent assay; format: functional; details: A-375, light or radiation study
[9] = tested on: HCT-116; assay: Antiproliferative activity against human HCT-116 cells harboring KRAS G13D mutant assessed as cell growth inhibition preincubated with compound for 1 hrs followed by UV irradiation for 5 mins and measured 72 hrs post compound treatment by CellTiter-Glo luminescent assay; format: functional; details: HCT-116, light or radiation study
[10] = Cytotoxicity against HEK293T cells assessed as cell growth inhibition incubated for 72 hrs by CellTiter-Glo luminescent assay; format: toxicity, cell-based, HEK-293T; details: human
[11] = tested on: A549; assay: Antiproliferative activity against human A549 cells harboring KRAS […] mutant assessed as cell growth inhibition incubated for 72 hrs in the absence of UV irradiation by CellTiter-Glo luminescent assay; format: functional; details: A549, light or radiation study
[12] = tested on: HCT-116; assay: Antiproliferative activity against human HCT-116 cells harboring KRAS G13D mutant assessed as cell growth inhibition incubated for 72 hrs in the absence of UV irradiation by CellTiter-Glo luminescent assay; format: functional; details: HCT-116, light or radiation study
[13] = Photoactivation of the compound assessed as photocleavage in the presence of 365 nm UV irradiation by HPLC based LC-MS analysis
[14] = tested on: A549; assay: Antiproliferative activity against human A549 cells harboring KRas […] mutant assessed as cell growth inhibition preincubated with compound for 1 hrs followed by UV irradiation for 5 mins and measured 72 hrs post compound treatment by CellTiter-Glo luminescent assay; format: functional; details: A549, light or radiation study
[15] = tested on: A-375; assay: Inhibition of colony formation in human A-375 cells at 10 to 300 nM incubated for 10 days by crystal violet staining based analysis; format: functional, cell-based; details: dose 10-300 nM, time 10.0 day
[16] = Stability in human blood plasma assessed as half-life; format: ADME, cell-free
[17] = Stability of the compound under 365 nm UV irradiation measured after 10 mins; format: physicochemical
[18] = molecular target: Mitogen-activated protein kinase; ERK1/ERK2 (Homo sapiens, UniProt P27361+P28482); assay: Inhibition of ERK1/2 phosphorylation in human A-375 cells incubated for 1 hrs in the absence of UV irradiation by Western blot analysis; format: cell-based
[19] = Photoactivation of the compound assessed as photocleavage by measuring mirdametinib recovery in the presence of 365 nm UV irradiation by HPLC based LC-MS analysis
[20] = Photoactivation of the compound assessed as fold change in caging efficiency
[21] = molecular target: Dual specificity mitogen-activated protein kinase kinase 1 (Homo sapiens, UniProt Q02750); assay: Inhibition of MEK1 (unknown origin) incubated for 1 hrs in the presence of ATP by FRET-based Z'-Lyte assay
Dual specificity mitogen-activated protein kinase kinase 1, sequence (Q02750 whole entry): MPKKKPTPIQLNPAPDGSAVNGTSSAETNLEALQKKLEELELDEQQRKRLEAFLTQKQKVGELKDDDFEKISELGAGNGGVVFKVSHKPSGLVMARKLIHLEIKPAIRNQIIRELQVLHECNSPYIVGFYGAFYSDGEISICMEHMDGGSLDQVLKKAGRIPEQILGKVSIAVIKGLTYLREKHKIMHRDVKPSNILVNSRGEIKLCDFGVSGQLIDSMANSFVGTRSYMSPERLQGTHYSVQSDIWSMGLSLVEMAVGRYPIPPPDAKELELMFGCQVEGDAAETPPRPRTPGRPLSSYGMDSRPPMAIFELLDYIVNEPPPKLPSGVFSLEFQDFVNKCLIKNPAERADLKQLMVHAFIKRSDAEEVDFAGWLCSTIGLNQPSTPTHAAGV

Structure (SMILES)	GI50 [1] [nM]	GI50 [2] [nM]	GI50 [3] [nM]	GI50 [5] [nM]	half-life [6] [min]	GI50 at 72 h [7] [nM]	GI50 [8] [nM]	GI50 [9] [nM]	GI50 at 72 h [10] [nM]	GI50 [11] [nM]	GI50 [12] [nM]	GI50 [14] [nM]	other results
COc1cc(CN(c2ccc(I)cc2F)c2c(C(=O)NOC[C@H](O)CO)ccc(F)c2F)c([N+](=O)[O-])cc1OC	9.95	18.1	5.59	3.76	0.19	–	–	–	–	–	–	–	degraded at 12 h [4]: > 30%
C[C@H](NC(=O)OC(C)(C)C)C(=O)O	–	> 100000	–	–	–	> 100000	> 100	–	–	–	–	–	–
O=[N+]([O-])c1cc2c(cc1CO/C(=N\OC[C@H](O)CO)c1ccc(F)c(F)c1Nc1ccc(I)cc1F)OCO2	128	605	40.3	36.7	1.68	–	–	236	> 10000	> 10000	> 10000	896	Drug metabolism [13]: Metabolite_Detected
O=C(NOCCO)c1ccc(F)c(F)c1Nc1ccc(I)cc1F	–	3.36	–	–	–	–	–	–	–	–	–	–	–
C[C@H](NC(=O)OC(C)(C)C)C(=O)OCc1cc2c(cc1[N+](=O)[O-])OCO2	–	> 100000	–	–	–	> 100000	> 100	–	–	–	–	–	–
O=C(NOC[C@H](O)CO)c1ccc(F)c(F)c1Nc1ccc(I)cc1F [MIRDAMETINIB]	1.37	1.28	1.49	1.59	–	–	–	52.5	> 10000	4.94	44.7	10.6	inhibition [15]: Active; half-life [16]: > 289 min; Stability [17]: Stable; EC50 [18]: ~ 1.2 nM
COc1cc(COC(=O)[C@H](C)NC(=O)OC(C)(C)C)c([N+](=O)[O-])cc1OC	–	> 100000	–	–	–	> 100000	> 100	–	–	–	–	–	–
CCN(CC)c1ccc2c(CO/C(=N\OC[C@H](O)CO)c3ccc(F)c(F)c3Nc3ccc(I)cc3F)cc(=O)oc2c1	222	9800	108	123	0.2	–	–	1750	> 10000	> 10000	1500	270	Drug recovery [19]: < 10%; fold change (FC) [20]: > 5085; IC50 [21]: > 30000 nM
COc1ccc(CN(c2ccc(I)cc2F)c2c(C(=O)NOC[C@H](O)CO)ccc(F)c2F)cc1OC	–	1520	–	–	–	–	–	–	–	–	–	–	–
COc1cc(COCCONC(=O)c2ccc(F)c(F)c2Nc2ccc(I)cc2F)c([N+](=O)[O-])cc1OC	43.4	7130	9.4	16	0.52	–	–	–	–	–	–	–	–
CC(OC(=O)[C@H](C)NC(=O)OC(C)(C)C)c1cc2c(cc1[N+](=O)[O-])OCO2 (some centres undefined)	–	> 100000	–	–	–	> 100000	> 100	–	–	–	–	–	–
CCN(CC)c1ccc2c(COC(=O)[C@H](C)NC(=O)OC(C)(C)C)cc(=O)oc2c1	–	> 100000	–	–	–	> 100000	15.8	–	–	–	–	–	–
COc1cc(C(C)OC(=O)[C@H](C)NC(=O)OC(C)(C)C)c([N+](=O)[O-])cc1OC (some centres undefined)	–	> 100000	–	–	–	> 100000	> 100	–	–	–	–	–	–
CC(O/C(=N\OC[C@H](O)CO)c1ccc(F)c(F)c1Nc1ccc(I)cc1F)c1cc2c(cc1[N+](=O)[O-])OCO2 (some centres undefined)	28.6	3610	7.17	9.7	1.26	–	–	169	> 10000	> 10000	> 10000	478	Drug metabolism [13]: Metabolite_Detected
COc1cc(CO/C(=N\OC[C@H](O)CO)c2ccc(F)c(F)c2Nc2ccc(I)cc2F)c([N+](=O)[O-])cc1OC	272	1170	82.2	82.8	1.71	–	–	1050	> 10000	> 10000	1920	1890	–
